Test results from BindingDB's records for doi:10.1016/j.bmcl.2004.12.045 (Nimbus Therapeutics, 2022).

What was measured:
Cytochrome P450 3A4 = Cytochrome P450 3A4 (Homo sapiens, UniProt P08684); assay: Inhibition of CYP3A4 (unknown origin)
[1] = biological target: Potassium voltage-gated channel subfamily H member 2 (Homo sapiens, UniProt Q12809); assay: Inhibition of hERG measured by patchclamp assay
Cytochrome P450 2A6 = biological target: T1, Cytochrome P450 2A6 (Homo sapiens, UniProt P11509); assay: Inhibition of CYP2A6 (unknown origin)
T1 sequence (P11509 whole entry): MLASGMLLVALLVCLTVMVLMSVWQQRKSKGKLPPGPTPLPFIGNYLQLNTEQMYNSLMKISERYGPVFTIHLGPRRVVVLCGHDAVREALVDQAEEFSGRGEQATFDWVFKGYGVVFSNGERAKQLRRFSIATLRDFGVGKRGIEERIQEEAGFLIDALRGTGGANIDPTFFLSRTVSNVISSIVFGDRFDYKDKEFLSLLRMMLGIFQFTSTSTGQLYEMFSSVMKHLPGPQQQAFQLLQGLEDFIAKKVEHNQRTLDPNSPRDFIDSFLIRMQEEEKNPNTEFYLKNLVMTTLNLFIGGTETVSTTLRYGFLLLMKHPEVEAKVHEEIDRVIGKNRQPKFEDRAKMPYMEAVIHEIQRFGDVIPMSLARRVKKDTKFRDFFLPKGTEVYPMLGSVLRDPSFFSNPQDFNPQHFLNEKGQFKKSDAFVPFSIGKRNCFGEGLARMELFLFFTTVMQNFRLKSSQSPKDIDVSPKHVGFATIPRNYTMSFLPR

Cytochrome P450 2C19 = Cytochrome P450 2C19 (Homo sapiens, UniProt P33261); assay: Inhibition of CYP2C19 (unknown origin)
Cytochrome P450 2C19, sequence (P33261 whole entry): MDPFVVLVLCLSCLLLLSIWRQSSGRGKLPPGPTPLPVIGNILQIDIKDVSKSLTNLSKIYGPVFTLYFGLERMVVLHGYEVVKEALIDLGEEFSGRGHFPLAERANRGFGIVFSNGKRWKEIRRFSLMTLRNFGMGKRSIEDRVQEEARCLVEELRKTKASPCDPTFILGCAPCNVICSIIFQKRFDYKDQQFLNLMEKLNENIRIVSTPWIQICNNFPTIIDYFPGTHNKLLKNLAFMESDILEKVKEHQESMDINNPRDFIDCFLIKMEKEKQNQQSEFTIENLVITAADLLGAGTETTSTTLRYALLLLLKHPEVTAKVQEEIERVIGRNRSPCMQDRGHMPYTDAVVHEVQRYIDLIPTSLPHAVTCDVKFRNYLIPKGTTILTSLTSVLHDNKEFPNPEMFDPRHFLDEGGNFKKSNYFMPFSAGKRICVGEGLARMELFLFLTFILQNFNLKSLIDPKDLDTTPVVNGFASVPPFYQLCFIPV

Cytochrome P450 2C8 = biological target: T2, Cytochrome P450 2C8 (Homo sapiens, UniProt P10632); assay: Inhibition of CYP2C8 (unknown origin)
T2 sequence (P10632 whole entry): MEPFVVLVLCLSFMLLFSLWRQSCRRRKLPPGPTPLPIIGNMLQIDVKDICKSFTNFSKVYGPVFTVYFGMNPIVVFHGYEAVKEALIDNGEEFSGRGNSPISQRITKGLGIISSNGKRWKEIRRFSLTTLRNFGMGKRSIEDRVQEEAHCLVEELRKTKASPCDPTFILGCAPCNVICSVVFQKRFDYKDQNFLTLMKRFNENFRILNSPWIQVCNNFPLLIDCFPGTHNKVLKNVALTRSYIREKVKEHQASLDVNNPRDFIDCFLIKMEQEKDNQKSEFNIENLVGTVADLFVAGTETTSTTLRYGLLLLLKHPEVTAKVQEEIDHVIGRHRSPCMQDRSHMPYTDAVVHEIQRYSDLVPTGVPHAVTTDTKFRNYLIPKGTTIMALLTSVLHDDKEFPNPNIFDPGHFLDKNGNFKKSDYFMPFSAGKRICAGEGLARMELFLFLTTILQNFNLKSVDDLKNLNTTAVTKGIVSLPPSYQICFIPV

Cytochrome P450 3A5 = Cytochrome P450 3A5 (Homo sapiens, UniProt P20815); assay: Inhibition of CYP3A5 (unknown origin)
Cytochrome P450 3A5, sequence (P20815 whole entry): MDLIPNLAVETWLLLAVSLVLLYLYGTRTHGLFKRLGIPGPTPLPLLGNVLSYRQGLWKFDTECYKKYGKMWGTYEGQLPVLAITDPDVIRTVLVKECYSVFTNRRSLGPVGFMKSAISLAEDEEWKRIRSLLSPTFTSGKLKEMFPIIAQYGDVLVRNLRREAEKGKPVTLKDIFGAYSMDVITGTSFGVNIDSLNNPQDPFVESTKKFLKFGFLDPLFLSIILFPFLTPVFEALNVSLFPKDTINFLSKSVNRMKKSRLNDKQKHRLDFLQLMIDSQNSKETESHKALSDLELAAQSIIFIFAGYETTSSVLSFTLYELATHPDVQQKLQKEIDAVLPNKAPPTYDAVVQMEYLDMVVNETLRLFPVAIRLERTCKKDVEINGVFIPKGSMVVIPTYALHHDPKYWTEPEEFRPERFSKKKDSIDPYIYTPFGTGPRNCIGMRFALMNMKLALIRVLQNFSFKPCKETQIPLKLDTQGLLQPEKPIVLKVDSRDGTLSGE

Cytochrome P450 2D6 = Cytochrome P450 2D6 (Homo sapiens, UniProt P10635); assay: Inhibition of CYP2D6 (unknown origin)
Cytochrome P450 2D6, sequence (P10635 whole entry): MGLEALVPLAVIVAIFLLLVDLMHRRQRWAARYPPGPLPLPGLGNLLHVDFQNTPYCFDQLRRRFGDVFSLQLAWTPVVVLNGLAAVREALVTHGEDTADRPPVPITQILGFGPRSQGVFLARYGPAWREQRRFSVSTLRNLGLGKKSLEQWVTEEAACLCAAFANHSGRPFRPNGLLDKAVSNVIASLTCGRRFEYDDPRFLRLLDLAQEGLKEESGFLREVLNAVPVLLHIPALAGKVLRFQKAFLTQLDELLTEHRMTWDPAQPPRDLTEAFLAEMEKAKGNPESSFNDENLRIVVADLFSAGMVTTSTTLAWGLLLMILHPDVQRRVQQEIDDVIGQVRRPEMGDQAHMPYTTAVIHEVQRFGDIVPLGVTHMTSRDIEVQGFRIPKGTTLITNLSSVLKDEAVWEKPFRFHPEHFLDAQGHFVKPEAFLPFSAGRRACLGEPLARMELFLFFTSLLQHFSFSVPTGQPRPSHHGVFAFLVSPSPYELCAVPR

Cytochrome P450 1A2 = biological target: T3, Cytochrome P450 1A2 (Homo sapiens, UniProt P05177); assay: Inhibition of CYP1A2 (unknown origin)
T3 sequence (P05177 whole entry): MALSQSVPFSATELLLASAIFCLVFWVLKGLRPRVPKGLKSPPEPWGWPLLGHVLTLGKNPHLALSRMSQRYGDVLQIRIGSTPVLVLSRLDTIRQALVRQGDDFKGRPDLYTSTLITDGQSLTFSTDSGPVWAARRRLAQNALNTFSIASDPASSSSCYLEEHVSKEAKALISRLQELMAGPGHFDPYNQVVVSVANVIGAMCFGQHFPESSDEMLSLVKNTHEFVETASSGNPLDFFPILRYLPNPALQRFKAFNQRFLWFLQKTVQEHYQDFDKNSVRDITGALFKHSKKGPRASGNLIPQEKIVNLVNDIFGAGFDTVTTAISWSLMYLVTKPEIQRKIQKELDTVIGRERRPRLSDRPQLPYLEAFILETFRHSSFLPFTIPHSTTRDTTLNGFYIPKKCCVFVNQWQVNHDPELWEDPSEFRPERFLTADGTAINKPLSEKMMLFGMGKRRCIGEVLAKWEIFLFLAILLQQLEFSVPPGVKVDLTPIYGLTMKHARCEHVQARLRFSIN

Cytochrome P450 2B6 = biological target: T4, Cytochrome P450 2B6 (Homo sapiens, UniProt P20813); assay: Inhibition of CYP2B6 (unknown origin)
T4 sequence (P20813 whole entry): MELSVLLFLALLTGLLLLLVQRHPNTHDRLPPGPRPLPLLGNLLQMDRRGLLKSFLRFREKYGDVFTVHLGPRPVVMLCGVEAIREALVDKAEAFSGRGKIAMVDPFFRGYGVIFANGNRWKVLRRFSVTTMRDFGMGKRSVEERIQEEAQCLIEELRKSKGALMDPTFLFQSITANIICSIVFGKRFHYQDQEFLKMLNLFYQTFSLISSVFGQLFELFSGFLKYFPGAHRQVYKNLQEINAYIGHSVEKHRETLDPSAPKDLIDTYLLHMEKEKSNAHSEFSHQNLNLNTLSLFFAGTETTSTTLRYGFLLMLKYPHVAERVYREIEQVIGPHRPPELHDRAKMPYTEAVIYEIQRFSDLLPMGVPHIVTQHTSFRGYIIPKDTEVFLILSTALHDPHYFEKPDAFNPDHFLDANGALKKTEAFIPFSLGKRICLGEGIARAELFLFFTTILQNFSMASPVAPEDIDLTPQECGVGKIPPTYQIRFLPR

Cytochrome P450 2E1 = Cytochrome P450 2E1 (Homo sapiens, UniProt P05181); assay: Inhibition of CYP2E1 (unknown origin)
Cytochrome P450 2E1, sequence (P05181 whole entry): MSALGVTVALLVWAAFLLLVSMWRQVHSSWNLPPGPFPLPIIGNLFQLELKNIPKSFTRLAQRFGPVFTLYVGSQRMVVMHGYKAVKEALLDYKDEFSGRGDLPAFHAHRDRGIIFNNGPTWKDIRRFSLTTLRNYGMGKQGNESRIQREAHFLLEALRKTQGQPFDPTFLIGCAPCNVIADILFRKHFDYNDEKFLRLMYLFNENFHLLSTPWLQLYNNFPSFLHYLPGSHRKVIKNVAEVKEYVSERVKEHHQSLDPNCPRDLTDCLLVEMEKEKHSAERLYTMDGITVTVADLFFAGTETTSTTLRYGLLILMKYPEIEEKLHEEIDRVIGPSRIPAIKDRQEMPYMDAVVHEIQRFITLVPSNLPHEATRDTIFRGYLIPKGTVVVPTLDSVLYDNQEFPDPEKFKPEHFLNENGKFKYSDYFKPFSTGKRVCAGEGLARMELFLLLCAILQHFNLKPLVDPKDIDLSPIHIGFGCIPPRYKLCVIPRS

Cytochrome P450 2C9 = Cytochrome P450 2C9 (Homo sapiens, UniProt P11712); assay: Inhibition of CYP2C9 (unknown origin)
Cytochrome P450 2C9, sequence (P11712 whole entry): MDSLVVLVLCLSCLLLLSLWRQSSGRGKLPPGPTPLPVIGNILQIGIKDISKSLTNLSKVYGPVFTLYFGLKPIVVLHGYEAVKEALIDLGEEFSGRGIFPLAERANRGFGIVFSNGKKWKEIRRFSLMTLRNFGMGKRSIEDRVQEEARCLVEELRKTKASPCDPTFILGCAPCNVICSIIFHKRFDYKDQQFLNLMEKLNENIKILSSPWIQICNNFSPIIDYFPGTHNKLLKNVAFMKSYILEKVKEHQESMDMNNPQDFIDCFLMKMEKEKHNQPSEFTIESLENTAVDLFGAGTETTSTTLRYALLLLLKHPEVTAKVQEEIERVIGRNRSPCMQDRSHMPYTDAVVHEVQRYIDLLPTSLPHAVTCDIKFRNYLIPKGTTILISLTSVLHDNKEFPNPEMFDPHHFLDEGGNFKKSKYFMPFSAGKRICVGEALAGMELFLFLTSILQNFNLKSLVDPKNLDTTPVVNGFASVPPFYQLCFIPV

Measured: IC50

Cytochrome P450 3A4, sequence (P08684 whole entry): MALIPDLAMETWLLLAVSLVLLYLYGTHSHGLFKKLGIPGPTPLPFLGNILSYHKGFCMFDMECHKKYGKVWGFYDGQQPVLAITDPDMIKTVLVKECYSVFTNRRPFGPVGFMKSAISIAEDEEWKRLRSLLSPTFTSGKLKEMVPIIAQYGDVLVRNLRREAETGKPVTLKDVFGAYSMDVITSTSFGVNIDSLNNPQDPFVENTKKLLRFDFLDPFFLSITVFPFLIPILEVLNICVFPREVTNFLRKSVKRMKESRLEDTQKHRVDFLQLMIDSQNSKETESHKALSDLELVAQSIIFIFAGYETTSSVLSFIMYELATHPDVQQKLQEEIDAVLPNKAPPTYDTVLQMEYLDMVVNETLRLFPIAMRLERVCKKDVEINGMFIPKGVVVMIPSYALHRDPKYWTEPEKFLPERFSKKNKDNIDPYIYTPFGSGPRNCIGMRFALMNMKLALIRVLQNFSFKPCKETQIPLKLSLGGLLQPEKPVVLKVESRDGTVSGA
Potassium voltage-gated channel subfamily H member 2, sequence (Q12809 whole entry): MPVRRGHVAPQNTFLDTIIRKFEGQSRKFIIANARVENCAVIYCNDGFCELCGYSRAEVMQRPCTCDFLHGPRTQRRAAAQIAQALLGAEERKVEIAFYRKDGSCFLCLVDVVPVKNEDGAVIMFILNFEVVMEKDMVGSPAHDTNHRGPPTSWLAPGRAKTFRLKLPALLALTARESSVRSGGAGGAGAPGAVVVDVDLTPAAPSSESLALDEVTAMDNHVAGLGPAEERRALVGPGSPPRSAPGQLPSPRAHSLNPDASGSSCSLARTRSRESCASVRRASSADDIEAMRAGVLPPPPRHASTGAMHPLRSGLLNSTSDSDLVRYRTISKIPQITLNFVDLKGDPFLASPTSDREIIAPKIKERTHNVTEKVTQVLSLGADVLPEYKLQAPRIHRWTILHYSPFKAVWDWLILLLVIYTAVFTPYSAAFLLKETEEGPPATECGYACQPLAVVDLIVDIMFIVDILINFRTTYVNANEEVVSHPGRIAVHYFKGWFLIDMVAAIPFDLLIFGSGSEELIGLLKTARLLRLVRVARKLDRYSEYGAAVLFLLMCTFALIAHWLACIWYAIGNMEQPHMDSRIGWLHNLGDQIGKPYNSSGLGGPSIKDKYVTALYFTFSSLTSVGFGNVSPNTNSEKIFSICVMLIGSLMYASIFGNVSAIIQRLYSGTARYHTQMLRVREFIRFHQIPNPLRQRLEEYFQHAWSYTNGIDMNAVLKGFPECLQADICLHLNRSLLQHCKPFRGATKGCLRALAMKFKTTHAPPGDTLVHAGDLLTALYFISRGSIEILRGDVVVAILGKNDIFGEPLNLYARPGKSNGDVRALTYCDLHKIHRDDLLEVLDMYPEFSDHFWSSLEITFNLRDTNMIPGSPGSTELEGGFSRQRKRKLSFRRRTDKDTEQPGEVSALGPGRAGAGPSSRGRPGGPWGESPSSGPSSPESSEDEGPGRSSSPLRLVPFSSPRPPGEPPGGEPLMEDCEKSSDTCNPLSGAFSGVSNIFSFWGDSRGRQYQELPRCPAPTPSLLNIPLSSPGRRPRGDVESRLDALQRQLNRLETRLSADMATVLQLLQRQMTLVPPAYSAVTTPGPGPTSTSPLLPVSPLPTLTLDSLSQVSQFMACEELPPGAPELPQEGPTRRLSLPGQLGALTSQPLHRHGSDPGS

O=C1NCc2nc(-c3c(F)cccc3F)cc(Nc3ccc(C(=O)N4CCCC4)cc3)c21 [US10336752, Compound 2]
> 30 µM: all assays above
